Source: ChEMBL document CHEMBL1201862, “PubChem BioAssay data set” (2004)
Active and inactive are the calls of the source.

Key:
[1] = target: Heat shock protein HSP 90-alpha (Homo sapiens, UniProt P07900); type: functional, organism-based
[2] = fluconazole-exposed Candida albicans growth modulators – fluorescence, retest, confirmation (AID 2467); type: functional, cell-based
[3] = viability of uninfected HEp-2 cells – cell-based, HTS, cytotoxicity control for RSV inhibitor project, dose response (AID 2410); type: functional; details: human respiratory syncytial virus
[4] = NIH-3T3 fibroblast cytotoxicity, dose response, cytotoxicity control, cell-based, fluorescence, Alamar Blue, secondary assay (AID 2327); type: functional;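 note: NIH-3T3 mouse fibroblasts cultured with fluconazole at 8 µg/mL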
Vero = experiment: cells; type: functional; details: Chlorocebus sabaeus
HEK293 = experiment: EBV LMP1 TES2 canonical NF-kB signalling blockers – cell-based, HEK293, luciferase, cherry-pick, dose response (AID 588343); type: functional; details: Homo sapiens
Leucine aminopeptidase = target: T1, Leucine aminopeptidase (Plasmodium falciparum 3D7, UniProt Q8IL11); experiment: P. falciparum M17LAP inhibitors, primary screen, biochemical, fluorogenic H-Leu-NHMec substrate, 1536-well (AID 1619); type: functional
T1 sequence (Q8IL11 whole entry): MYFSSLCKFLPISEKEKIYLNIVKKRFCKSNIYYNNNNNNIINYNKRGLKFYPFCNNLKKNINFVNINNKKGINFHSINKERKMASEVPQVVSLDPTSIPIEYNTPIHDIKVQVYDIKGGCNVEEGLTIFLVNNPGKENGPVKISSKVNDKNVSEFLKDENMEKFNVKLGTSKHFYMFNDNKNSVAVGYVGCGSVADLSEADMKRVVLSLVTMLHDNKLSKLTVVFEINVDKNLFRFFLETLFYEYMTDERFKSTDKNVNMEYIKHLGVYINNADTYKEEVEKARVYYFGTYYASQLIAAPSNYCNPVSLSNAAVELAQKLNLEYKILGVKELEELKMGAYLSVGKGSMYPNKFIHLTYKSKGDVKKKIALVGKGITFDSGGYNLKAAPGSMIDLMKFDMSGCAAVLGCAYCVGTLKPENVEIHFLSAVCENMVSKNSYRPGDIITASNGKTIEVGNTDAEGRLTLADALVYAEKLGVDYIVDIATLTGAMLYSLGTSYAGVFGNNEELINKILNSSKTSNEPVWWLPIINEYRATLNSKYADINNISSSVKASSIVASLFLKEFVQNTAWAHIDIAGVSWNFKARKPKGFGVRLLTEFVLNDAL

Cytochrome P450 2C9 = Cytochrome P450 2C9 (Homo sapiens, UniProt P11712)
Chain of Cytochrome P450 2C9 (P11712 whole entry): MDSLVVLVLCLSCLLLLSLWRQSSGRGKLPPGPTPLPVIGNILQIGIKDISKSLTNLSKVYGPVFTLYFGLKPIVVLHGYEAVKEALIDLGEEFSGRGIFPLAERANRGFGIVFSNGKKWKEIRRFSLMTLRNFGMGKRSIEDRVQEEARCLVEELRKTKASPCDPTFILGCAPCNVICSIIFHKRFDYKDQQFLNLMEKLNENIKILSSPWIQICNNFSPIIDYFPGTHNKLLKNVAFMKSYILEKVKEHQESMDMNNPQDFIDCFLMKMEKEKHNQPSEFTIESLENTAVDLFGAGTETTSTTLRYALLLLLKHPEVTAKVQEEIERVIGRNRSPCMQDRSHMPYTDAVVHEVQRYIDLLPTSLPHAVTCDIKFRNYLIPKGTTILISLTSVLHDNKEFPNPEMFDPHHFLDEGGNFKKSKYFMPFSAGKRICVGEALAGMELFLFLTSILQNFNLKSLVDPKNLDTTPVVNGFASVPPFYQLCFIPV

cells [5] = type: functional, cell-based
cells [6] = type: functional, cell-based; remark: listed apart in the source
[7] = microbe, parasite or virus in culture; type: functional; details: Mycobacterium tuberculosis
[8] = viability of PTEN-deleted HCT116 cells – cell-based, HCT116 PTEN knockout, dose response (AID 1047); type: functional;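 note: HCT116 colon tumor cells with PTEN knocked out; cells exposed to compound for 60 hours before readout; potency for loss of cell viability measured by luminescence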
[9] = viability of HCT116 lacking mutant beta-catenin – cell-based, human colon tumor, dose response (AID 1045); type: functional;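 note: HCT116 colon tumor cells with beta catenin knocked out; cells exposed to compound for 60 hours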
[10] = Luminescence Cell-Based Dose Retest to Confirm Inhibitors of Cancer Stem Cells. [Related pubchem assays (depositor defined):AID2717, AID2721]; type: functional; details: Homo sapiens
[11] = target: T2, Heat shock factor protein 1 (Mus musculus, UniProt P38532); experiment: decrease of HSF1-responsive luciferase luminescence – cell-based, NIH3T3, dose retest, confirmation (AID 2382); type: functional;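 note: NIH3T3 fibroblasts with HSF1-driven luciferase reporter stressed by proteasome inhibitor MG132; luminescence from HSF1-driven luciferase expression after 8 hours of MG132 stress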
T2 sequence (P38532 whole entry): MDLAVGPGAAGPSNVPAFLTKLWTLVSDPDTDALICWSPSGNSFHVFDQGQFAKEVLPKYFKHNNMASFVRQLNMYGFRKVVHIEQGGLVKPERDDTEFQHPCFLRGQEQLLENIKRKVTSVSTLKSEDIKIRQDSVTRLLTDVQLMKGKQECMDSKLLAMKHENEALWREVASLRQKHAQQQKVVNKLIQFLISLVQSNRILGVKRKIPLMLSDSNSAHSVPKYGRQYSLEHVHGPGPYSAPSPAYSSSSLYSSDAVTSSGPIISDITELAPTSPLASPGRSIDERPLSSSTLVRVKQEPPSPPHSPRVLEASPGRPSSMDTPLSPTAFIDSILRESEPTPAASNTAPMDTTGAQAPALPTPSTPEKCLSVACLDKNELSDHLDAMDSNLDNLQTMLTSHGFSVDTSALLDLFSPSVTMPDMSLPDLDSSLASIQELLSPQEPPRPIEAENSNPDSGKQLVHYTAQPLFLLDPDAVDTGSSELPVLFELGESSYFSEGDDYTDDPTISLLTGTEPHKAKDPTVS

Aminopeptidase N = target: T3, Aminopeptidase N (Plasmodium falciparum FcB1/Columbia, UniProt O96935); experiment: malaria alanyl aminopeptidase activity blockers – biochemical, fluorogenic H-Leu-NHMec substrate, 1536-well (AID 1445); set-up: species or system Plasmodium falciparum 3D7, 3D7
T3 sequence (O96935 whole entry): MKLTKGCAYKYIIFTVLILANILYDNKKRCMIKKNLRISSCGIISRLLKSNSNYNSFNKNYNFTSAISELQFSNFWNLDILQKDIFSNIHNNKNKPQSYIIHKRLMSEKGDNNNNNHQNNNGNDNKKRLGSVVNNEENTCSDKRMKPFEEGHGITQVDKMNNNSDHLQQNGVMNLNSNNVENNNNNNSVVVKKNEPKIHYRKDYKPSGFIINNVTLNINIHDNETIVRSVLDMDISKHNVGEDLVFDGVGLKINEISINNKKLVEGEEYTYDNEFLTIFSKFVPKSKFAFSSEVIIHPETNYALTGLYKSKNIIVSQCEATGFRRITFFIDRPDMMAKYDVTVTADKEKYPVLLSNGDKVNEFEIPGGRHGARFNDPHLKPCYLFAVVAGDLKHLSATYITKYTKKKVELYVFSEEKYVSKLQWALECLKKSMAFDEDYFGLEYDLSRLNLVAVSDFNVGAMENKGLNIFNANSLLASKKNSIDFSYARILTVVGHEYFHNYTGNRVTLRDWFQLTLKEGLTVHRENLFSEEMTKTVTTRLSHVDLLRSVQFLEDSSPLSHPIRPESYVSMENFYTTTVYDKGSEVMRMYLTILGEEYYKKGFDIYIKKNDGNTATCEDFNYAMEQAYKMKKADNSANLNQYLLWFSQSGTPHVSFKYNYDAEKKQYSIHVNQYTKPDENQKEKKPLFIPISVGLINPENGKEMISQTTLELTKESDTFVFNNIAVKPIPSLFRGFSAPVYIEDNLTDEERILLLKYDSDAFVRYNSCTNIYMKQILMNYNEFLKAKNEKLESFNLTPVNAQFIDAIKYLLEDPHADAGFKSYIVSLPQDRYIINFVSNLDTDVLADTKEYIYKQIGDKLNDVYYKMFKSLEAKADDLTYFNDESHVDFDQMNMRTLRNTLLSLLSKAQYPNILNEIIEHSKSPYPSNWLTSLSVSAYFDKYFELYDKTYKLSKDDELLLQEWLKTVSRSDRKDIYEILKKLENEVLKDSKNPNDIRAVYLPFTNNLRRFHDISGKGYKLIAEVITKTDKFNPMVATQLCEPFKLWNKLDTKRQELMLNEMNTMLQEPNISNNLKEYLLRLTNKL

Cytochrome P450 2D6 = Cytochrome P450 2D6 (Homo sapiens, UniProt P10635);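 note: CYP2D6 member of a cytochrome P450 panel assay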
Chain of Cytochrome P450 2D6 (P10635 whole entry, the tested form may be a part): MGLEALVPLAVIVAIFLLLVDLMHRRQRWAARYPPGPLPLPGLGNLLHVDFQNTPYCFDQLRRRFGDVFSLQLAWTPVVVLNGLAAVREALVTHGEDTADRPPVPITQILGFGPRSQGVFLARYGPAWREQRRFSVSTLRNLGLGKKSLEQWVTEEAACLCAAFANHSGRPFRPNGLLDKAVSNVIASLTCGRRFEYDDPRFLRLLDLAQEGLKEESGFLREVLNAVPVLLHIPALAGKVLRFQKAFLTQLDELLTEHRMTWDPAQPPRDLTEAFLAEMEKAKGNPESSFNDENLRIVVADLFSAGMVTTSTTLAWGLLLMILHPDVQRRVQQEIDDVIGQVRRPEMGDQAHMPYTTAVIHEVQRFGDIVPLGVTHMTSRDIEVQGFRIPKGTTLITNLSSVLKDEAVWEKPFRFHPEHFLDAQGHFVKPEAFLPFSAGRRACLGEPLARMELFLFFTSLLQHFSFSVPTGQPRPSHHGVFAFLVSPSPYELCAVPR

[12] = HIV-1 AD8 envelope cell-cell fusion blockers – cherry-pick, dose response (AID 652062); type: functional, cell-based;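 note: luciferase signal from cell-cell fusion driven by HIV-1 clade B AD8 Env; potency is for inhibitors of fusion seen as a drop in luminescence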
[13] = target: T4, Rac GTPase-activating protein 1 (Homo sapiens, UniProt Q9H0H5); experiment: blockers of MgcRacGAP-driven Rac1 GTP hydrolysis – biochemical, ADP Hunter fluorescence, primary and confirmatory, confirmation (AID 624330); type: functional
T4 sequence (Q9H0H5 whole entry): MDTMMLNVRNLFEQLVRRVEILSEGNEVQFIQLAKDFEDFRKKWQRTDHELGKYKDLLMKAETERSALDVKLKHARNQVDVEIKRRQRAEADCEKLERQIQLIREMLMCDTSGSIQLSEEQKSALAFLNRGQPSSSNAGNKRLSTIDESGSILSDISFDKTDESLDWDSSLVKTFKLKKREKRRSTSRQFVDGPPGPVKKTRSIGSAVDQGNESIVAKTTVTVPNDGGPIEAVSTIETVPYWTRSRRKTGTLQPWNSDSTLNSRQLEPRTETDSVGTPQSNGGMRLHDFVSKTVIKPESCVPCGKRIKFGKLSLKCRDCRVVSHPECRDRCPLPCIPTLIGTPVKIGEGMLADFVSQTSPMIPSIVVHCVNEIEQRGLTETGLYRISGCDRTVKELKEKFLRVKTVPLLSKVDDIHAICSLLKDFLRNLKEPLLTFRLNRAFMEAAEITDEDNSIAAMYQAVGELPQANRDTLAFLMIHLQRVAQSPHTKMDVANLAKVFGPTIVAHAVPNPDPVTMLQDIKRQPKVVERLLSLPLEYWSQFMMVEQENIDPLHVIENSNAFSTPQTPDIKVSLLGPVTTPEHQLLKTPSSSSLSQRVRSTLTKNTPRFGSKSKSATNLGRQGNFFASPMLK

Nonstructural protein 1 = Nonstructural protein 1 (Influenza A virus, UniProt Q194T2); type: functional, Influenza A virus (A/California/07/2009(H1N1))
Chain of Nonstructural protein 1 (Q194T2 whole entry): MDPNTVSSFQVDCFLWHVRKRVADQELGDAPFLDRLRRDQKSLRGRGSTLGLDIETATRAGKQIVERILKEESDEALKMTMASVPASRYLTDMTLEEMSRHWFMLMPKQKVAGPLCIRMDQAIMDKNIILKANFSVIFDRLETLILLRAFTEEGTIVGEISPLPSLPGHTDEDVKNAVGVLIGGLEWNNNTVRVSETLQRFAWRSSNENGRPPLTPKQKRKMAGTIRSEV

Q: Which results are given for `O=C(N/N=C/c1ccccn1)c1cc(-c2ccc(Cl)cc2)nc2ccccc12`?
A: AC50 [1]: 7.9 µM (active); EC50 [2]: 1.06 µM (active); CC50 [3]: 11.8 µM (active); EC50 [4]: 20.6 µM (active); CC50 (Vero): 14.2 µM (active)

Q: With `N#Cc1ncc(N=Cc2ccc(N(CCCl)CCCl)cc2)s1` as the molecule, how does the AC50 (HEK293) read?
A: The AC50 was 1.22 µM (active).

Q: With `O=C(CSc1nnc(NC(=O)c2c(F)cccc2F)s1)Nc1ccc(F)cc1` as the molecule, how does the IC50 (Leucine aminopeptidase) read?
A: Its IC50 is 32.3 µM (active).

Q: For `O=C(O)c1ccc(N/N=C/c2ccc(C(F)(F)F)cc2)cc1`, which IC50 (Leucine aminopeptidase) is on record?
A: The IC50 was 46.3 µM (active).

Q: With `Cc1ccc(C(=O)N/N=C/c2sc(=O)n(Cc3cccc(C(=O)O)c3)c2Cl)cc1` as the molecule, how does the IC50 (Leucine aminopeptidase) read?
A: The IC50 was 17.8 µM (active).

Q: And the AC50 (Cytochrome P450 2C9)?
A: The AC50 was 12.6 µM (inconclusive).

Q: With `CNS(=O)(=O)c1cccc(C(=O)OCC(=O)c2ccc3c(c2)OCCO3)c1` as the molecule, how does the AC50 (HEK293) read?
A: The AC50 was 8.57 µM (active).

Q: Which EC50 (cells [5]) does the source give for `COc1ccc2ccccc2c1/C=N/Nc1cccc(C(=O)O)c1` here?
A: Its EC50 is > 350 µM (not active).

Q: And the EC50 (cells [6])?
A: Its EC50 is 16.8 µM (active).

Q: With `CCC(=O)NC(=S)Nc1ccc(NC(=O)COc2ccc(Cl)cc2Cl)cc1` as the molecule, how does the CC50 [7] read?
A: Its CC50 is 39.6 µM (active).

Q: Which EC50 [8] does the source give for `C=CCn1cccc(/C=C/C(=O)c2ccc(C(C)(C)C)cc2)c1=S` here?
A: Its EC50 is 4.04 µM (active).

Q: And the EC50 [9]?
A: Its EC50 is 2.56 µM (active).

Q: What about the CC50 [7] of the same molecule?
A: The CC50 was 10.3 µM (active).

Q: And the AC50 [10]?
A: The AC50 was 5.64 µM (active).

Q: Which EC50 [11] does the source give for `CCCCOc1ccc(CC(=O)NO)cc1` [BUFEXAMAC] here?
A: The EC50 was > 195 µM (not active).

Q: What about the IC50 (Leucine aminopeptidase) of the same molecule?
A: The IC50 was < 1 µM (active).

Q: And the IC50 (Aminopeptidase N)?
A: The IC50 was 81.2 µM (active).

Q: And the AC50 (Cytochrome P450 2D6)?
A: Its AC50 is 10 µM (inconclusive).

Q: Which results are given for `CCOc1ccc(-c2c(C(=O)N/N=C/c3cccnc3)nnn2-c2nonc2N)cc1`?
A: EC50 (cells [5]): > 350 µM (not active); EC50 (cells [6]): > 350 µM (not active)

Q: With `CSc1ccc(N/N=C(/C#N)S(=O)(=O)C(C)(C)C)cc1` as the molecule, how does the IC50 (Leucine aminopeptidase) read?
A: The IC50 was 30.6 µM (active).

Q: With `CC(c1ccccc1)N1CCN(C(=O)CCl)CC1` (stereo not drawn) as the molecule, how does the EC50 [11] read?
A: The EC50 was 43.8 µM (active).

Q: And the CC50 (Vero)?
A: Its CC50 is 9.03 µM (active).

Q: And the CC50 [7]?
A: The CC50 was 17.9 µM (active).

Q: Which AC50 [12] does the source give for `Cc1onc(-c2ccccc2)c1C(=O)Nc1ccc(Br)cc1Cl` here?
A: The AC50 was 3.43 µM (active).

Q: With `O=C(CNCc1ccccn1)N1CCc2ccccc2C1` as the molecule, how does the IC50 [13] read?
A: The IC50 was 177 µM (active).

Q: What about the IC50 (Nonstructural protein 1) of the same molecule?
A: Its IC50 is 3.54 µM (active).

Q: What does the source list for `Cc1ccc(CNC(=O)NC2CCCCC2)cc1`?
A: EC50 (cells [5]): > 350 µM (not active); EC50 (cells [6]): 55 µM (active)
